From US20240209027A1, “PEPTIDE AND PEPTIDE-CONTAINING COMPOSITION” (PeptiAID Inc.,, priority 2021, published 2024)
Read-outs that look alike come from different tables or passages of the source. Starred links: 1 amine or outer side, 2 acyl side, 3 side chain; linkers in the order of their positions; H or OH if unused. Positions of bridges follow the written chain, without caps; N, C: chain ends. Non-standard residues stand in square brackets, D forms with d. Residues, ends and D or L forms follow the SMILES beside them. Chains are numbered I, II in the order given. ξ: configuration not given here. *: point of attachment. Ala(piperidin-4-yl) = O=C([C@H](CC1CCN([*:3])CC1)N[*:1])[*:2]; Ala(indan-2-yl) = N[C@@H](CC1Cc2ccccc2C1)C(=O)O; Phe(4-COOH) = N[C@@H](Cc1ccc(C(=O)O)cc1)C(=O)O; X3 = O=C(O)CN1CCC(N[*:1])(C(=O)[*:2])CC1; Phe(4-F) = N[C@@H](Cc1ccc(F)cc1)C(=O)O; C12 diacid = O=C(O)CCCCCCCCCCC(=O)*; X1 = C[C@@H](Cc1ccc(O)cc1)C(=O)*; 3Pal = N[C@@H](Cc1cccnc1)C(=O)O; NMeE = CN[C@@H](CCC(=O)O)C(=O)O; dNMeE = CN[C@H](CCC(=O)O)C(=O)O; Cha = N[C@@H](CC1CCCCC1)C(=O)O; Cit = NC(=O)NCCC[C@H](N)C(=O)O; dNMeD = CN[C@H](CC(=O)O)C(=O)O; NMeNle = CCCC[C@H](NC)C(=O)O; hCys = N[C@@H](CCS)C(=O)O; ξαMeS = CC(N)(CO)C(=O)O; X2 = O=C(C[*:1])[*:2]; Aib = CC(C)(N)C(=O)O; Sar = CNCC(=O)O

Key:
Type in all cases: cell-based
[1] = target: SARS-CoV-2-derived S protein, Beta strain (Severe acute respiratory syndrome coronavirus 2, UniProt P0DTC2, D80A/D215G/DEL241-243/K417N/E484K/N501Y/D614G/A701V, form not given)
[2] = target: SARS-CoV-2-derived S protein, Alpha strain (Severe acute respiratory syndrome coronavirus 2, UniProt P0DTC2, DEL69-70/DEL144-144/N501Y/A570D/D614G/P681H/T716I/S982A/D1118H, form not given)
[3] = target: SARS-CoV-2-derived S protein, Gamma strain (Severe acute respiratory syndrome coronavirus 2, UniProt P0DTC2, L18F/T20N/P26S/D138Y/R190S/K417T/E484K/N501Y/D614G/H655Y/T1027I/V1176F, form not given)
[4] = system: SARS-CoV-2-derived S protein, Delta strain

SMILES: CCCC[C@H]1C(=O)NC(C)(C)C(=O)N[C@@H](CC2CCCCC2)C(=O)N[C@@H](Cc2ccc(F)cc2)C(=O)NC(C)(C)C(=O)N[C@@H](Cc2ccc(O)cc2)C(=O)N[C@@H](Cc2ccc(O)cc2)C(=O)N[C@@H](Cc2ccc(C(=O)O)cc2)C(=O)N[C@@H](CC2CCNCC2)C(=O)N[C@@H](CC2CCCCC2)C(=O)N[C@H](C(=O)N[C@H](CCC(=O)O)C(N)=O)CSCC(=O)N(C)[C@@H](CCC(=O)O)C(=O)N1C [Peptide 5555_p020] ({CH2CO}-[NMeE][NMeNle][Aib][Cha][Phe(4-F)][Aib]YY[Phe(4-COOH)][Ala(piperidin-4-yl)][Cha]C[dE]-NH2; thioether N-12)
- Imax: % (at 500 nM) [1]: 100%
- Imax: % (at 500 nM) [2]: 100%
- Imax: % (at 500 nM) [3]: 100%

SMILES: CCCC[C@H]1C(=O)NC(C)(C)C(=O)N[C@@H](CC2CCCCC2)C(=O)N[C@@H](Cc2ccc(F)cc2)C(=O)N(C)[C@H](CC(=O)O)C(=O)N[C@@H](Cc2ccc(O)cc2)C(=O)N[C@@H](Cc2ccc(O)cc2)C(=O)N[C@@H](Cc2ccc(C(=O)O)cc2)C(=O)N[C@@H](CC2CCNCC2)C(=O)N[C@@H](CC2CCCCC2)C(=O)N[C@H](C(=O)N[C@H](CCC(=O)O)C(N)=O)CSCC(=O)N(C)[C@@H](CCC(=O)O)C(=O)N1C [Peptide 5555_p176] ({CH2CO}-[NMeE][NMeNle][Aib][Cha][Phe(4-F)][dNMeD]YY[Phe(4-COOH)][Ala(piperidin-4-yl)][Cha]C[dE]-NH2; thioether N-12)
- IC50 ([4]; Table 12): 0.6 nM
- Imax: % (at 500 nM) ([4]; Table 12): 100%

SMILES: CCCC[C@H]1C(=O)NC(C)(C)C(=O)N[C@@H](CC2CCCCC2)C(=O)N[C@@H](Cc2ccc(F)cc2)C(=O)NC2(CCN(CC(=O)O)CC2)C(=O)N[C@@H](Cc2ccc(O)cc2)C(=O)N[C@@H](Cc2ccc(O)cc2)C(=O)N[C@@H](Cc2ccc(C(=O)O)cc2)C(=O)N[C@@H](CC2CCNCC2)C(=O)N[C@@H](CC2CCCCC2)C(=O)N[C@H](C(=O)N[C@H](CCC(=O)O)C(N)=O)CSCC(=O)N(C)[C@@H](CCC(=O)O)C(=O)N1C [Peptide 5555_p173] ({CH2CO}-[NMeE][NMeNle][Aib][Cha][Phe(4-F)][X3]YY[Phe(4-COOH)][Ala(piperidin-4-yl)][Cha]C[dE]-NH2; thioether N-12)
- IC50 ([4]; Table 12): 0.6 nM
- Imax: % (at 500 nM) ([4]; Table 12): 100%

SMILES: CCCC[C@H]1C(=O)NC(C)(C)C(=O)N[C@@H](CC2Cc3ccccc3C2)C(=O)N[C@@H](Cc2ccc(F)cc2)C(=O)N(C)CC(=O)N[C@@H](Cc2ccc(O)cc2)C(=O)N[C@@H](Cc2ccc(O)cc2)C(=O)N[C@@H](CCCNC(N)=O)C(=O)N[C@H](CCCCN)C(=O)N[C@@H](CC2CCCCC2)C(=O)N[C@H](C(=O)N[C@H](CCC(=O)O)C(N)=O)CSCC(=O)N(C)[C@@H](CCC(=O)O)C(=O)N1C [Peptide 5555_p213] ({CH2CO}-[NMeE][NMeNle][Aib][Ala(indan-2-yl)][Phe(4-F)][Sar]YY[Cit][dK][Cha]C[dE]-NH2; thioether N-12)
- IC50 ([4]; Table 12): 0.6 nM
- Imax: % (at 500 nM) ([4]; Table 12): 101%

SMILES: CCCC[C@H]1C(=O)NC(C)(C)C(=O)N[C@@H](CC2CCCCC2)C(=O)N[C@@H](Cc2ccc(F)cc2)C(=O)N[C@H](CC(=O)O)C(=O)N[C@@H](Cc2ccc(O)cc2)C(=O)N[C@@H](Cc2ccc(O)cc2)C(=O)N[C@@H](CCCNC(N)=O)C(=O)N[C@H](CCCCN)C(=O)N[C@@H](CC2CCCCC2)C(=O)N[C@H](C(=O)N[C@H](CCC(=O)O)C(=O)O)CSCC(=O)N(C)[C@@H](CCC(=O)O)C(=O)N1C [Peptide 5555_p028] ({CH2CO}-[NMeE][NMeNle][Aib][Cha][Phe(4-F)][dD]YY[Cit][dK][Cha]C[dE]-OH; thioether N-12)
- Imax: % (at 500 nM) [1]: 93%
- Imax: % (at 500 nM) [2]: 96%
- Imax: % (at 500 nM) [3]: 95%

SMILES: CCCC[C@H]1C(=O)NC(C)(C)C(=O)N[C@@H](CC2Cc3ccccc3C2)C(=O)N[C@@H](Cc2ccc(F)cc2)C(=O)NC(C)(CO)C(=O)N[C@@H](Cc2ccc(O)cc2)C(=O)N[C@@H](Cc2ccc(O)cc2)C(=O)N[C@@H](Cc2ccc(C(=O)O)cc2)C(=O)N[C@@H](CC2CCNCC2)C(=O)N[C@@H](CC2CCCCC2)C(=O)N[C@H](C(=O)N[C@H](CCC(=O)O)C(N)=O)CSCC(=O)N(C)[C@@H](CCC(=O)O)C(=O)N1C (stereo partly shown) [Peptide 5555_p197] ({CH2CO}-[NMeE][NMeNle][Aib][Ala(indan-2-yl)][Phe(4-F)][ξαMeS]YY[Phe(4-COOH)][Ala(piperidin-4-yl)][Cha]C[dE]-NH2; thioether N-12)
- IC50 ([4]; Table 12): 0.4 nM
- Imax: % (at 500 nM) ([4]; Table 12): 101%

SMILES: CCCC[C@H]1C(=O)NC(C)(C)C(=O)N[C@@H](CC2CCCCC2)C(=O)N[C@@H](Cc2ccc(F)cc2)C(=O)N[C@H](CC(=O)O)C(=O)N[C@@H](Cc2ccc(O)cc2)C(=O)N[C@@H](Cc2ccc(O)cc2)C(=O)N[C@@H](CCCNC(N)=O)C(=O)N[C@H](CCCCN)C(=O)N[C@@H](CC2CCCCC2)C(=O)N[C@H](C(=O)N[C@H](CCC(=O)O)C(N)=O)CSCC(=O)N[C@@H](Cc2cccnc2)C(=O)N1C [Peptide 5555_p177] ({CH2CO}-[3Pal][NMeNle][Aib][Cha][Phe(4-F)][dD]YY[Cit][dK][Cha]C[dE]-NH2; thioether N-12)
- IC50 ([4]; Table 12): 2.8 nM
- Imax: % (at 500 nM) ([4]; Table 12): 97%

SMILES: CCCC[C@H]1C(=O)NC(C)(C)C(=O)N[C@@H](CC2Cc3ccccc3C2)C(=O)N[C@@H](Cc2ccc(F)cc2)C(=O)N2CCC[C@H]2C(=O)N[C@@H](Cc2ccc(O)cc2)C(=O)N[C@@H](Cc2ccc(O)cc2)C(=O)N[C@@H](CCCNC(N)=O)C(=O)N[C@H](CCCCN)C(=O)N[C@@H](CC2CCCCC2)C(=O)N[C@H](C(=O)N[C@H](CCC(=O)O)C(N)=O)CSCC(=O)N(C)[C@@H](CCC(=O)O)C(=O)N1C [Peptide 5555_p216] ({CH2CO}-[NMeE][NMeNle][Aib][Ala(indan-2-yl)][Phe(4-F)]PYY[Cit][dK][Cha]C[dE]-NH2; thioether N-12)
- IC50 ([4]; Table 12): 0.4 nM
- Imax: % (at 500 nM) ([4]; Table 12): 102%

SMILES: CCCC[C@H]1C(=O)NC(C)(C)C(=O)N[C@@H](CC2Cc3ccccc3C2)C(=O)N[C@@H](Cc2ccc(F)cc2)C(=O)NC2(CCN(CC(=O)O)CC2)C(=O)N[C@@H](Cc2ccc(O)cc2)C(=O)N[C@@H](Cc2ccc(O)cc2)C(=O)N[C@@H](Cc2ccc(C(=O)O)cc2)C(=O)N[C@@H](CC2CCNCC2)C(=O)N[C@@H](CC2CCCCC2)C(=O)N[C@H](C(=O)N[C@H](CCC(=O)O)C(N)=O)CSCC(=O)N(C)[C@@H](CCC(=O)O)C(=O)N1C [Peptide 5555_p196] ({CH2CO}-[NMeE][NMeNle][Aib][Ala(indan-2-yl)][Phe(4-F)][X3]YY[Phe(4-COOH)][Ala(piperidin-4-yl)][Cha]C[dE]-NH2; thioether N-12)
- IC50 ([4]; Table 12): 0.8 nM
- Imax: % (at 500 nM) ([4]; Table 12): 101%

SMILES: CCCC[C@@H](C(=O)NC(C)(C)C(=O)N[C@@H](CC1CCCCC1)C(=O)N[C@@H](Cc1ccc(F)cc1)C(=O)N[C@H](CC(=O)O)C(N)=O)N(C)C(=O)[C@H](CCC(=O)O)N(C)C(=O)CSCC[C@H](NC(=O)[C@H](CC1CCCCC1)NC(=O)[C@@H](CCCCN)NC(=O)[C@H](CCCNC(N)=O)NC(=O)[C@H](Cc1ccc(O)cc1)NC(=O)[C@@H](C)Cc1ccc(O)cc1)C(=O)N[C@H](CCC(=O)O)C(=O)N[C@H](CCCCNC(=O)CCCCCCCCCCC(=O)O)C(N)=O [Peptide 5555_p221] (I: X1-Y[Cit][dK][Cha][hCys][dE][dK](C12 diacid)-NH2 / II: [NMeE][NMeNle][Aib][Cha][Phe(4-F)][dD]-NH2; linker I:5-II:N via X2)
- IC50 ([4]; Table 12): 2.6 nM
- Imax: % (at 500 nM) ([4]; Table 12): 97%

SMILES: C[C@H]1C(=O)N(C)[C@@H](Cc2ccccc2)C(=O)N[C@@H](CO)C(=O)N[C@@H](CC2CCCCC2)C(=O)N[C@@H](Cc2ccc(O)cc2)C(=O)N[C@@H](CO)C(=O)N[C@@H](Cc2ccc(O)cc2)C(=O)N[C@@H](Cc2ccc(O)cc2)C(=O)N[C@@H](CCCNC(=N)N)C(=O)N[C@@H](CCCNC(=N)N)C(=O)N[C@@H](CC2CCCCC2)C(=O)N[C@H](C(=O)N[C@H](CCC(=O)O)C(N)=O)CSCC(=O)N1C [Peptide 5555_p000, MeA-MeF-S-Cha-Y-S-Y-Y-R-R-Cha-C]
- Imax: % (at 500 nM) [1]: 100%
- Imax: % (at 500 nM) [2]: 100%
- Imax: % (at 500 nM) [3]: 100%

SMILES: CCCC[C@H]1C(=O)NC(C)(C)C(=O)N[C@@H](CC2CCCCC2)C(=O)N[C@@H](Cc2ccc(F)cc2)C(=O)N(C)[C@H](CCC(=O)O)C(=O)N[C@@H](Cc2ccc(O)cc2)C(=O)N[C@@H](Cc2ccc(O)cc2)C(=O)N[C@@H](Cc2ccc(C(=O)O)cc2)C(=O)N[C@@H](CC2CCNCC2)C(=O)N[C@@H](CC2CCCCC2)C(=O)N[C@H](C(=O)N[C@H](CCC(=O)O)C(N)=O)CSCC(=O)N[C@@H](Cc2cccnc2)C(=O)N1C [Peptide 5555_p192] ({CH2CO}-[3Pal][NMeNle][Aib][Cha][Phe(4-F)][dNMeE]YY[Phe(4-COOH)][Ala(piperidin-4-yl)][Cha]C[dE]-NH2; thioether N-12)
- IC50 ([4]; Table 12): 2.5 nM
- Imax: % (at 500 nM) ([4]; Table 12): 102%
